The target of assay [1] is T1, TAFIa (activated human TAFI) (Homo sapiens, UniProt Q96IY4).
T1 sequence (Q96IY4 115-423): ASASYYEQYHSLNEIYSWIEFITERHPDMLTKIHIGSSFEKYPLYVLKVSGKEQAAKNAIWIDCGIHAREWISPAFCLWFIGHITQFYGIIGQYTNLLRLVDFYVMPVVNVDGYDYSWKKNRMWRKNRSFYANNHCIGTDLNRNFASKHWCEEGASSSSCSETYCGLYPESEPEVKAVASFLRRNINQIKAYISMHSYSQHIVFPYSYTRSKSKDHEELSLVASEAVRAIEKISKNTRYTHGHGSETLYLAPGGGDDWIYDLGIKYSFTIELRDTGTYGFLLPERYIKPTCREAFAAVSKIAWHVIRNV
Kind of assay: Assay for TAFIa inhibition (Ki determination, FAAL substrate hydrolysis). The assay is classed as biochemical. The note with it: Ki calculated from IC50 with Cheng-Prusoff equation; substrate furylacryloyl-alanyl-lysine, 24° C.; read-out: Ki (TAFla). How it is done: The compounds are incubated with activated TAFI and a standard substrate for TAFIa, the rate of hydrolysis of the substrate is determined and compared to the rate of hydrolysis in the absence of the compounds, and the amount of inhibition expressed in terms of Ki.
Human TAFI (recombinant or purified) was activated by incubating 20 μl of stock solution (360 μg/ml) with 10 μl of human thrombin (10NIH units/ml), 10 μl of rabbit thrombomodulin (30 μg/ml), 6 μl calcium chloride (50 mM) in 50 μl of 20 mM HEPES (N-[2-hydroxyethyl]piperazine-N-[2-ethanesulfonic acid]) buffer containing 150 mM sodium chloride and 0.01% TWEEN 80 (polyoxyethylene-sorbitan monooleate) pH 7.6 for 20 minutes at 22° C. At the end of the incubation period, thrombin was neutralised by the addition of 10 μL of PPACK (D-Phe-Pro-Arg chloromethyi ketone) (100 nM). The resulting TAFIa. solution was stored on ice for 5 minutes and finally diluted with 175 μl of HEPES buffer.
(§1) A number of different dilutions of the test compound in water were made up. To 20 μl of each dilution was added 150 μl of HEPES buffer and 10 μl of TAFIa, which was then pre-incubated for 15 minutes at 24° C. To each dilution was then added 20 μl furylacryloyl-alanyl-lysine (FAAL) at a standard concentration. Substrate turnover was measured by reading the absorbance of the reaction mixture at 330 nm every 15 seconds for 30 minutes. The reaction was performed at 24° C. and samples were mixed for 3 seconds prior to each absorbance reading.
(§2) A graph of % inhibition against test compound concentration was then plotted; from which was calculated the IC50 value. The Ki value was then calculated using the Cheng-Prusoff equation.
For the first control, the assay was performed as above, but with 20 μl of water rather than a dilution of the test compound.

In another assay the target is T2, human CPN (Homo sapiens, UniProt P15169).
T2 sequence (P15169 21-458): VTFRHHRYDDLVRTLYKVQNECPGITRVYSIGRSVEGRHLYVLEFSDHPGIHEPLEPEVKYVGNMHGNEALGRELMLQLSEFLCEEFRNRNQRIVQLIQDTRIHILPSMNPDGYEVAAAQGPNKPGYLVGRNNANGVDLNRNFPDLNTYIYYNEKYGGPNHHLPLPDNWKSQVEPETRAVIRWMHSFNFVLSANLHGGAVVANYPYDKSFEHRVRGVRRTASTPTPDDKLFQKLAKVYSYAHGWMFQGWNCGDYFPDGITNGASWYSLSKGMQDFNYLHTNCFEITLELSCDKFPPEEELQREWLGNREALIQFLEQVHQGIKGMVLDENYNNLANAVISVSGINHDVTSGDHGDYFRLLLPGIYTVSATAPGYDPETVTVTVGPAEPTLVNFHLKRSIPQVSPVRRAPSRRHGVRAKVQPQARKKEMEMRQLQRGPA
T2 sequence (P22792 22-545 partner): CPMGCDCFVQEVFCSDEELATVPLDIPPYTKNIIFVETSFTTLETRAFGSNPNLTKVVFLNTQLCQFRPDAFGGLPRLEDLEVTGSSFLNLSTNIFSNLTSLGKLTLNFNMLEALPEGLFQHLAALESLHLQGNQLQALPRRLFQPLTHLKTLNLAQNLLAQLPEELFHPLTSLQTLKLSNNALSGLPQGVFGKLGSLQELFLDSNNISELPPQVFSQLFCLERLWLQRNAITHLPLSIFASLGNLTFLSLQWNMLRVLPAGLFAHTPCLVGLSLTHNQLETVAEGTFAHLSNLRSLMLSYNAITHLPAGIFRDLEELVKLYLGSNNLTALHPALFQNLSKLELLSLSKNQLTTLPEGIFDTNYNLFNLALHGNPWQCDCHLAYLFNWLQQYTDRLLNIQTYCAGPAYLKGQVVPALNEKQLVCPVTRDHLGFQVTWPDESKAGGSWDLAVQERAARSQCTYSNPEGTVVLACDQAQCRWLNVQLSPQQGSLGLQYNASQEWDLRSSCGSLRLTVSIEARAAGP
Kind of assay: CPN Ki determination (TAFIa assay with human CPN substituted for TAFIa). The assay is classed as biochemical. The protocol:
as §1, §2
The selectivity of the compounds of the present invention for TAFIa over CPN was determined by calculating the Ki of the compounds of the present invention for CPN, then comparing it to the Ki for TAFIa. The Ki was calculated using the assay for the calculation of TAFIa Ki, but substituting 10 μl of human CPN for 10 μl of TAFIa.

Here are results for five molecules from patent US6958402B2, “3-(imidazolyl)-2-alkoxypropanoic acids” (Pfizer, Inc., priority 2002, dated 2005).

Structures are written as SMILES. Where a name gives a salt, the structure may show the parent alone. Some results are limits rather than exact numbers.

The term Ki denotes a measure of affinity in units of concentration, obtained from inhibition or displacement. In the case of `C[C@H](CN)O[C@@H](Cc1cn(-c2ccc(OC3CCCCC3)cc2)cn1)C(=O)O` [Example 49, (2S)-2-{[(1R)-2-Amino-1-methylethyl]oxy}-3-{1-[4-(cyclohexyloxy)phenyl]-1H-imidazol-4-yl}propanoic acid], in assay [1], the Ki was 9 nM.
With `NCCOC(Cc1cn(-c2cccc(Oc3ccccc3)c2)cn1)C(=O)O` (stereo not shown) [Example 40, 2-(2-Aminoethoxy)-3-[1-(3-phenoxyphenyl)-1H-imidazol-4-yl]propanoic acid dihydrochloride], the Ki in assay [1] was 14 nM.
Regarding `C[C@H](CN)O[C@@H](Cc1c[nH]cn1)C(=O)O` [Example 51, (2S)-2-{[(1R)-2-Amino-1-methylethyl]oxy}-3-(1H-imidazol-4-yl)propanoic acid], the values for the Ki (in assay [1]; on human CPN (same assay with 10 μl human CPN in place of TAFIa)) were 26 nM and above 10000 nM, respectively. Also, the “Selectivity for TAFIa over CPN” value at human CPN (Ki for CPN compared to Ki for TAFIa) is above 380.
Take `NCCOC(Cc1cn(CCc2ccccc2)cn1)C(=O)O` (stereo not shown) [Example 4]: in assay [1], the Ki was 10 nM.
In the case of `NCCO[C@@H](Cc1cn(CCC2CCCCC2)cn1)C(=O)O` [Example 5, (2S)-(−)-2-(2-Aminoethoxy)-3-[1-(2-cyclohexylethyl)-1H-imidazol-4-yl]propanoic acid], the Ki in assay [1] was 10 nM.
